Experimental data reported in patent US7368582B2, “Amidomethyl-substituted 2-(4-sulfonylamino)-3-hydroxy-3,4-dihydro-2H-chromen-6-yl compounds, a process and intermediates for their production, and pharmaceutical compositions containing them” (Solvay Pharmaceuticals GmbH, priority 2003, dated 2008).

Columns and labels:
[1] = test system: left atrium of rats' hearts; assay: Functional refractory period prolongation on isolated left atria of rats' hearts in vitro; set-up: species or system rat (Sprague-Dawley); settings: 10 μM
Protocol: 3. Investigation of the Functional Effectiveness of the Substances on the Atrium of Rats' Hearts in Vitro
In this test model it is determined to what extent the Kv 1.5-blocking substances of Formula I result in a prolongation of the functional refractory period in the left atrium of rats. The refractory period is the minimum possible elapsed time between the basic stimulus and additional stimulus in which a renewed contraction can be triggered. The extent of the prolongation of the functional refractory period is a measurement of the antiarrhythmic effectiveness of the substances according to the invention. The functional refractory period is determined by testing on the electrically stimulated preparation at what elapsed time from the preceding contraction a renewed contraction can be triggered by additional electrical stimuli.
The hearts were removed from freshly sacrificed rats (Sprague-Dawley, Charles-River, Germany). The left atria were isolated and fastened to force transducers in a temperature-controlled (30° C.), gasified (O2 95%, CO2 5%) organ bath which was filled with modified Tyrode solution (all values in mM: NaCl 137; KCl 2.7; CaCl2 1.8; MgCl2 0.8; NaHCO3 11.9; NaH2PO4 0.6; glucose 5). In order to trigger regular contractions, the preparations were electrically stimulated (rectangular pulses, pulse magnitude 3.5× threshold stimulus, pulse width 1.5 ms, frequency 1 Hz). Initially, the initial value of the functional refractory period was determined by applying extra pulses in addition to the basic stimulus, the elapsed time from the preceding basic stimulus being shortened until no further additional contraction could be triggered. Then the cumulative addition of increasing concentrations (0.1-10 μM) of the substances of Formula I took place at intervals of 20 min. each, the refractory period being determined again in each case 18 min. after the addition had taken place. Before the measurement, stock solutions of the test substances (3.2 and 0.32 mM in 100% DMSO) were prepared. In order to achieve the desired final concentrations of the substances (0.1-10 μM) in the organ bath (volume 100 ml), corresponding volumes of these stock solutions were then poured into the organ bath.
In each case the prolongation of the functional refractory period (FRP) in the left atrium of the rats' hearts in milliseconds observed after the addition of 10 μM of the respective substance of Formula I to the atrial preparations was given as characteristic variable.

[2] = test system: hearts of anaesthetised cats; assay: Atrial and ventricular fibrillation threshold in anaesthetised cats in vivo; set-up: species or system cat; settings: anaesthetized cats, dose 30 μmol/kg i.v.
Description: 5. Investigation of the Functional Effectiveness of the Substances on the Hearts of Anaesthetised Cats in Vivo
In the test model shown below, it was shown that the substances according to the invention at most have a marked atrial-selective effect on the heart. After administration of the substances according to the invention, a significant increase in the atrial fibrillation threshold—i.e. the current intensity at which atrial fibrillation occurs—was observed. At the same time, on the other hand, the ventricular fibrillation threshold is influenced only minimally.
Living cats were anaesthetised with chloralose/urethane (50/300 mg/kg i.v.) and were ventilated with ambient air. Then, following thoracotomy, stimulating electrodes were attached to the right atrium and the ventricle. The atrial and ventricular fibrillation threshold was determined in known manner by administration of rectangular pulses of increasing current intensity until atrial or ventricular fibrillation occurred (for performance see in detail: Br. J. Pharmac. 17 (1961) 167; Hdb. exp. Pharmacol. XVI/3 (1975) 131; Pharmacol. Res. 25 Suppl. 2 (1992) 156). The test substances of Formula I were dissolved in propylene glycol (80%) and administered intravenously in increasing doses (5-30 μmol/kg). Atrial and ventricular fibrillation thresholds were then determined at 5-minute intervals in known manner after the addition of the respective dose. The increase in the respective fibrillation threshold due to the substances investigated was expressed in percent of the value before administration of substance, i.e. a doubling of the fibrillation threshold corresponds to an increase of 100%.

[3] = test system: ventricle of guinea pigs; assay: Functional effectiveness on guinea-pig hearts in vivo (ERP, QT, QRS, systolic blood pressure); set-up: species or system guinea pig (Dunkin-Hartley); settings: 1 min. after 10 μmole/kg i.v.; for QRS / QT / syst. blood pressure (change): guinea pigs; for syst. blood pressure (change): minus effects due to the vehicle, negative values indicate reduction; for ERP: ventricle of guinea pigs, negative values indicate shortening
Description: 4. Investigation of the Functional Effectiveness of the Substances on Guinea-Pig Hearts in Vivo
In the test model shown below, it was shown that the substances according to the invention at most have slight undesirable proarrhythmic effects on repolarization in the ventricle. To this end, the influence of the compounds of Formula I on the effective refractory period (ERP) and other influencing variables on guinea-pig hearts in vivo were investigated. In this test model, non-selective potassium channel blockers not in accordance with the invention, which also block HERG and/or KvLQT1 channels, result in undesirable prolongation of the ERP and the QT time on an electrocardiogram (═ECG). The QT time is likewise a measurement of the repolarization in the heart. Prolongations of both the ERP and the QT time, respectively, which are due to the substances were independently interpreted as indications of the risk of the occurrence of undesirable torsade-de-pointes arrhythmias. Furthermore, the QRS interval also was determined in each case from the ECG as a measurement of the ventricular rate of spread of stimulus. Even a prolongation of the QRS interval caused by a test substance is connected with an increased risk of undesirable pro-arrhythmic side-effects. Therefore in this test model the lack of an ERP and QT time prolongation signifies a low risk, but the occurrence of a relevant ERP and QT prolongation on the other hand signifies an elevated risk of undesirable pro-arrhythmic effects. Also the lack of a prolongation of the QRS interval which is due to the substances due to the substances of Formula I investigated indicates a low risk of undesirable pro-arrhythmic side-effects, since lack of QRS prolongation indicates an undisturbed spread of stimulus in the ventricle. Conversely, a QRS prolongation, which is typically triggered by Class I antiarrhythmic drugs indicates slowing of the conduction rate and may promote the occurrence of ventricular tachycardias to ventricular fibrillation.
Male guinea pigs (Dunkin-Hartley from Charles River) were anaesthetized (ketamine 50 mg/kg, xylazine 10 mg/kg) and each of them was provided with a venous access via one jugular vein for administration of compounds of Formula I or a vehicle. A bipolar stimulation catheter was fed into the right ventricle of the guinea pigs via the other jugular vein (stimulation frequency 5 Hz). The arterial blood pressure was measured by a catheter located in the carotid artery which was connected to a Statham pressure transducer. The ECG was recorded via needle electrodes. The measured data were digitized via an analog/digital converter, recorded on a computer with suitable software (Ponemah Physiology Platform from Gould, USA) and printed out in parallel on a multichannel printer. After an equilibration period of 45 min., increasing doses of the compounds of Formula I or of the vehicle were administered intravenously (=i.v.) to the guinea pigs at 12-minute intervals. Before the first administration and in each case one minute after administration of increasing doses (0.1−max. 30 μmole/kg) of the substances of Formula I, the effective refractory period was measured. For this, after five normal stimuli in each case an additional pulse was applied and the elapsed time thereof from the preceding pulse was increased until a heart action was triggered. The observed time interval corresponds to the ERP of the ventricular myocardium.
In order to detect possible effects of the test substances on the blood pressure, in the same test model after each administration of substance the systolic and diastolic blood pressure was determined and compared with the previous blood-pressure level. The parameters were recorded automatically 1 and 8 min. after each administration of substance.
Only statistically significant effects were listed, with a t-test with a significance limit of P<0.05 being used for the statistical testing.

[4] = molecular target: T1, Kv 1.3-potassium channel (Homo sapiens, UniProt P22001); assay: In-vitro Kv 1.3-potassium channel-blocking effect (membrane potential-sensitive fluorescent dye in transfected CHO cells); format: cell-based; settings: 10 μM test substance; CHO cells transfected with Kv 1.3; relative to reference margatoxin
T1 construct: expressed in transfected cells; host or cells: CHO cells, stably transfected with the Kv 1.3 plasmid using DMRIE-C
Description: 2. In-Vitro Investigation of the Kv 1.3-Potassium Channel-Blocking Effect of the Substances
In this test model, known oocytes of the Chinese hamster (═CHO) are used which are stably transfected with the Kv 1.3-potassium channel. The blockade of the cell-inherent Kv 1.3-potassium channel activity in the transfected cells is accompanied by a positive shift in the membrane potential from approx. −40 mV to −30 mV, whereas in the wild-type CHO cells investigated in parallel no significant shift in the membrane potential is triggered. A change in the membrane potential is thus connected to the reduction in the Kv 1.3-potassium channel activity. By blocking the Kv 1.3-potassium channels e.g. with substances of Formula I and the resulting change in the membrane potential, an accumulation of a membrane potential-sensitive fluorescent dye in intracellular compartments of the oocytes and ultimately increasing fluorescence occurs. The change in the membrane potential of the oocytes is therefore measured indirectly via the increase in fluorescence of the membrane potential-senstive dyes.
The cells were transfected with the Kv 1.3 plasmid in known manner with a commercially obtainable transfection reagent (DMRIE-C from Gibco BRL, Germany). The successful transfection was verified by immunofluorescence and by “patch-clamp” investigations of the potassium ion current. The fluorescence measurements were performed on a Tecan Safire fluorescence reader from Tecan, Germany. In each case, the increase in the fluorescent intensity caused by the blockade of the Kv 1.3-potassium channels in the oocytes with substances of Formula I in a concentration of 10 μM was determined as characteristic variable. The increase in the fluorescent intensity was given in each case in percent (%) compared with an increase in the fluorescent intensity caused by the reference substance margatoxin. Margatoxin is known as a selective Kv 1.3-potassium channel blocker (see e.g. M. Garcia-Calvo et al., J. Biol. Chem. 268 (1993) 18866-18874).

[5] = percent of value before administration

T1 sequence (P22001 whole entry): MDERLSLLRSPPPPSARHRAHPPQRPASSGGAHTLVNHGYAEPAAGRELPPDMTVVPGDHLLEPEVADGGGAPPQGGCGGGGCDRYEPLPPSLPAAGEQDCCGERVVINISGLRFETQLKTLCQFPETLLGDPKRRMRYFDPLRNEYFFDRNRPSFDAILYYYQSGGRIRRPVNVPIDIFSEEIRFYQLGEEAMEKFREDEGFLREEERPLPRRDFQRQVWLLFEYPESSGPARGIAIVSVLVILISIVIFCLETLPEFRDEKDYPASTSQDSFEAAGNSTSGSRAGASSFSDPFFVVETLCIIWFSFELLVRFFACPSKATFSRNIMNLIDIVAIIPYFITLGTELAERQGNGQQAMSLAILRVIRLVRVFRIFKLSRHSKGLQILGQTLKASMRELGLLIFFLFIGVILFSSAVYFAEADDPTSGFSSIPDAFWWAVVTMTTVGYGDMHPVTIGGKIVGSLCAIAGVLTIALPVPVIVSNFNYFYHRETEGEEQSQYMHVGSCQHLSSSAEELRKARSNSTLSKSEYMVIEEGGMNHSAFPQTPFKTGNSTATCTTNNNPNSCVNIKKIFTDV

SMILES	FRP prolongation [1]	Selectivity factor (AFT:VFT) [2]	AFT (increase in the atrial fibrillation threshold) [2, 5]	VFT (increase in the ventricular fibrillation threshold) [2, 5]	QRS [3]	QT [3]	syst. blood pressure (change) [3]	ERP [3]	Increase in the fluorescent intensity (% margatoxin) [4]
CCc1ccc(S(=O)(=O)NC2c3cc(CC(=O)NC4CCCc5ccccc54)ccc3OC(C)(C)C2O)cc1 (centres unmarked) [Example 1, 2-(4-{[(4-Ethylphenyl)sulfonyl]amino}-3-hydroxy-2,2-dimethyl-3,4-dihydro-2H-chromen-6-yl)-N-1,2,3,4-tetrahydronaphth-1-yl acetamide]	15 ms	3	66%	22%	n.s.	n.s.	n.s.	n.s.	
CCc1ccc(S(=O)(=O)N[C@@H]2c3cc(CC(=O)NCc4ccccc4)ccc3OC(C)(C)[C@H]2O)cc1 [Example 11]	24 ms				n.s.	n.s.	n.s.	n.s.	99 % margatoxin
